Read-outs that look alike come from different tables or passages of the source.
What was measured:
[1] = test system: MTAP knock out (KO) HCT116 cells; test: Proliferation assay, HCT116 MTAP knock out cells (Alamar Blue); assay type: cell-based; settings: Homo sapiens, HCT-116; HCT116, MTAP status KO, MTAP mRNA level low; average values from two or more experiments
Protocol: (§1) For the HCT116 isogenic cell line (the parental model purchased from ATCC, the MTAP KO clone generated in-house using CRISPR technology): Cells were harvested to a density of 400 cells per well (McCoys 5A+10% FCS+1% Glutamax), 40 μl/well seeded into 384-well plates (Greiner, Kremsmunster, Austria; 781090) using a Multidrop Combi. For Day 0 plates immediately add 4 μl Alamar Blue reagent (Thermo; DAL1100) using a multidrop combi and incubate for 3 h at 37° C., 5% CO2. Day 0 cell plates were measured using Envision plate reader with fluorescence excitation wavelength of 540-570 nm (peak excitation is 570 nm), fluorescence emission at 580-610 nm (peak emission is 585 nm). Test compounds were added using an Echo 555 and placed in incubator at 37° C., 5% CO2 and incubated for 4 more days. […], add 4 μl Alamar Blue reagent using a Multidrop Combi and incubate for 3 h at 37° C., 5% CO2. Day 4 cell plates were measured using EnVision plate reader with fluorescence excitation wavelength of 540-570 nm, fluorescence emission at 580-610 nm. The rate of proliferation (IC50 values) was determined using Genedata screener software by assessing the total cell number from the Envision plate reader for Day 0 and Day 4 plates.

[2] = test system: L428 cells; test: Proliferation assay, L428 Hodgkin Lymphoma cells (CellTiter Glo); assay type: cell-based; settings: Homo sapiens
Protocol: (§2) For the Hodgkin Lymphoma cell lines L428, L540, L1236, HDLM2 and KM-H2 (purchased from DSMZ, http://www.dsmz.de): Assay Ready Plates were prepared by adding compounds to 384-well plates (Corning #3712) using Echo Liquid Handler. On day 0, 1200 cells/well of L428, L540, or KMH2 cells in 60 μl of growth media (RPMI1640+10% FBS+1% L-Glu+1% P/S) were dispensed into the Assay Ready Plates, 10 μM as final top concentration, with 1:3 dilution, and 10 doses total. The same volume was also dispensed into 1 empty plate for Day 0 control plate. 30 μl/well of CellTiter Glo reagent (Promega #7573) was added into Day 0 plate, incubate at room temperature for 20 min in dark, Measure luminescence on plate reader Tecan M200 using 100 ms integration time, Oms attenuation and settle times. The assay plates were incubated for 7 days in incubator with 37° C., 90% humidity, 5% CO2. Luminescence was measured as Day 0 control plate. IC50 was calculated using GraphPad Prism 8 with Nonlinear regression (curve fit) analysis.

[3] = test system: L540 cells; test: Proliferation assay, L540 Hodgkin Lymphoma cells (CellTiter Glo); assay type: cell-based; settings: Homo sapiens
Protocol: as §2

[4] = test system: wild type (wt) HCT116 cells; test: Proliferation assay, HCT116 wild type cells (Alamar Blue); assay type: cell-based; settings: Homo sapiens, HCT-116; HCT116, MTAP status wt, MTAP mRNA level high; average values from two or more experiments
Protocol: as §1

[5] = test system: L1236 cells; test: Proliferation assay, L1236 Hodgkin Lymphoma cells (CellTiter Glo); assay type: cell-based
Protocol: as §2

[6] = test system: HDLM2 cells; test: Proliferation assay, HDLM2 Hodgkin Lymphoma cells (CellTiter Glo); assay type: cell-based; settings: Homo sapiens
Protocol: as §2
Alternatively, for HDLM2 (purchased from DSMZ): Cells were grown as […] cells in growth media (phenol red free RPMI+10% FCS+2 mM glutamine). Cells were seeded into 96-well clear-bottomed black tissue-culture treated plates at 1000 cells/well in 90 μl growth media and placed in an incubator at 37° C., 5% CO2. Compound was obtained in solution from the liquid bank at a concentration of 10 mM in DMSO then half-log serial dilutions performed in DMSO to make ×1000 fold stock solutions. Concentrations were then diluted 1 in 10 in DMSO followed by 1 in 10 in growth media to give an addition plate at x^10 final concentration in 10% DMSO. 10 μl compound was then added to 90 μl cell (1 in 10 dilution) to give a concentration range of 0.1 nM to 10 μM in 1% DMSO. CellTiter Glo readings were taken at the point of dosing and at 6 days. […] Read luminescence on Envision F (ultrasensitive luminescence 96-well protocol with 384 well aperture). IC50 was calculated using GraphPad Prism 8 with Nonlinear regression (curve fit) analysis.

[7] = test system: MTAP silenced L540 HL xenograft; test: Tumor growth inhibition in L540 HL xenograft model; assay type: in vivo, Mouse (Mus Musculus); settings: for TGI (%): 21 days of dosing, TGI measured day 21 (end of treatment), NOD/SCID mice
Protocol: (§3) This study was performed to evaluate tumor growth inhibition and pharmacodynamic changes following treatment with the MTA synergistic PRMT5 inhibitor Compound C in the MTAP silenced L540 HL xenograft model. Three doses of Compound C (Dose Level 1, Dose Level 2 and Dose Level 3) were tested. Pharmacodynamic changes were assessed by western blot for a decrease in SDMA (marker of target engagement) following treatment with Compound C.
Xenografts were established by subcutaneous (SC) injection of 5×10^e6 cells suspended in 0.1 mL of PBS into the right front flank of 6-to 8-week-old animals. Tumors were allowed to reach 100-200 mm^3 before randomization. Tumors were measured by calliper and the volumes of tumors were calculated using the following formula: Volume (mm3)=(Tumor Length)×(Tumor width)×(Tumor width)/2 Tumor length (the longest tumor dimension); Tumor width (the longest tumor dimension perpendicular to length).
Animals were randomized into groups based on the size of the tumor. Randomization was performed based on “Matched distribution” method (StudyDirector™ software, version 3.1.399.19). The date of randomization is denoted as Day 0. There were no animal substitutions.
(§4) Control animals were dosed with vehicle (5% v/v DMSO/20% v/v Kolliphor HS15/75% v/v purified water (pH 3.0-3.2)) PO, and vehicle and Compound C treated animals were dosed according to Table 6. Dosing was initiated 1 day upon selection and randomization. On day 21 of dosing, all animals from each received the last dose in the morning. Mice were necropsied 6 h later and flash frozen tumors were collected for PD analysis.
(§5) • Tumors were measured twice weekly by caliper, and the volumes of tumors were calculated using the formula: Volume (mm^3)=(Tumor Length)×(Tumor width)×(Tumor width)/2 • Relative tumor volume (RTV) was calculated using the formula: RTV for day X=(Tumour volume on day X)/(Tumour volume on day 0) • The anti-cancer effect of Compound C was expressed as percent of tumor growth inhibition (TGI) calculated on last day of the study using the formula: • Percentage TGI on day X for treatment group=(((Geomean RTV Vehicle day X)−(Geomean RTV Treatment group day X))/((Geomean RTV Vehicle on day X)−1)×100 • Animals were weighted daily for the dosing phase and twice weekly for all other phases. Percentage of body weight change was calculated using the formula: Percentage body weight change on day X=(((Body weight day X)−(Body weight day of select)×100))
Tumor volumes were plotted as geometric means with SEM. Percentage of body weight change was plotted as means with SEM. Significant p-values for TGI relative to vehicle treated controls (relative tumor volumes) at the last day of treatment, were obtained from a Mann-Whitney one-tailed test, and calculated by GraphPad Prism 8.4.3

[8] = Tolerability / body weight in L540 HL xenograft model; assay type: in vivo, Mouse (Mus Musculus); settings: all doses tested, PO, 21 days
Protocol: as §4, §5
Tumor volumes were plotted as geometric means with SEM. Percentage of body weight change was plotted as means with SEM. […]

[9] = test system: SDMA (marker of target engagement); test: Pharmacodynamic analysis: SDMA western blot in L540 xenograft tumors; assay type: in vivo, Mouse (Mus Musculus); settings: tumors collected 6 h after last dose on day 21, western blot normalized to vinculin
Protocol: as §3, §4
To determine levels of protein of interest in tumor samples, snap frozen tumor fragments at the end of the PD study were used and protein extracted by adding 600-1000 μl lysis buffer for small and large tumors, respectively. […] Lysates were transferred to a deepwell plate, and protein in the supernatant measured using BCA normalisation method (Thermofisher, #23225). […] The membranes were washed three times for 15 minutes each in 20 ml of TBST, and signal was detected using chemiluminescent SuperSignal West Dura extended duration substrate (Thermofisher, #34075) and quantified using Syngene software. The 30 kDa molecular weight band of PRMT5's substrate, SDMA, was quantified using Syngene software. The 110 kDa molecular weight band of vinculin was also quantified. […]
Primary analysis was carried out using Excel, where raw data was firstly normalised to vinculin, secondly to the geomean of vehicle control and then multiplied by 100. […] Significant p-values, if any, obtained from the ANOVA test, were quantified using GraphPad Prism 8.4.3.

[10] = L-428, L428, MTAP status wt, MTAP mRNA level high, average values from two or more experiments, read-out: IC50, proliferation
[11] = L-540, L540, MTAP status wt, MTAP mRNA level low, average values from two or more experiments, read-out: IC50, proliferation
[12] = L-1236, L1236, MTAP status wt, MTAP mRNA level low, average values from two or more experiments, read-out: IC50, proliferation
[13] = HDLM-2, HDLM2, MTAP status wt, MTAP mRNA level low, average values from two or more experiments, read-out: IC50, proliferation

Compound `Nc1nc2cc(CN3C(=O)c4cc(F)ccc4[C@]34CCN(Cc3ccc(F)cc3)C4=O)[nH]c2cc1F` [Compound A, (S)-2-((5-Amino-6-fluoro-1H-pyrrolo[3,2-b]pyridin-2-yl)methyl)-5-fluoro-1′-(4-fluorobenzyl)spiro[isoindoline-1,3′-pyrrolidine]-2′,3-dione] has an IC50 [1] of 158 nM, an IC50 [2, 10] of 2520 nM and an IC50 [3, 11] of 247 nM. The IC50 [4] was over 20000 nM, the IC50 [5, 12] was 67 nM and the IC50 [6, 13] was 39 nM.
For `CC(=O)N1CCC(Nc2cc(C(=O)NC[C@H](O)CN3CCc4ccccc4C3)ncn2)CC1` [Compound B, reference compound], the IC50 [1] was 74 nM, the IC50 [2, 10] was 583 nM and the IC50 [3, 11] was 157 nM. It also gave an IC50 [4] of 75 nM, an IC50 [5, 12] of 14 nM and an IC50 [6, 13] of 93 nM.
In the case of `CC#CCN1CC[C@@]2(C1=O)c1ccc(F)cc1C(=O)N2Cc1cc2nc(N)c(F)cc2[nH]1` [Compound C, (S)-2-((5-Amino-6-fluoro-1H-pyrrolo[3,2-b]pyridin-2-yl)methyl)-1′-(but-2-yn-1-yl)-5-fluorospiro[isoindoline-1,3′-pyrrolidine]-2′,3-dione], the “TGI (%)” value ([7]; Dose Level 1, PO) is reported as 22%, the “TGI (%)” value ([7]; Dose Level 2, PO) is reported as 52% and the “TGI (%)” value ([7]; Dose Level 3, PO) is reported as 93%. For the same compound, the “Inhibition of tumour growth in vivo (in words)” value ([7]; Dose Levels 1-3, PO, L540 HL xenograft) was “dose-dependent efficacy”, the IC50 [1] was 170 nM and the IC50 ([2]; L-428, read-out: IC50, proliferation) was 4640 nM. For the same compound, the IC50 ([3]; L-540, read-out: IC50, proliferation) was 252 nM, the IC50 [4] was 8540 nM and the “Body weight loss during the treatment period compared to vehicle-treated group” value [8] was “no significant body weight loss”. For the same compound, the Tolerability [8] was “well tolerated”, the IC50 ([5]; L-1236, read-out: IC50, proliferation) was 77 nM and the IC50 ([6]; HDLM-2, read-out: IC50, proliferation) was 827 nM. The “Percentage Inhibition of SDMA” value ([9]; Dose Level 1, PO) was 83.9%, the “Percentage Inhibition of SDMA” value ([9]; Dose Level 2, PO) was 97.6% and the “Percentage Inhibition of SDMA” value ([9]; Dose Level 3, PO) was 99.1%.

From patent US20260048040A1, “MTA-COOPERATIVE PRMT5 INHIBITORS FOR USE IN THE TREATMENT OF CANCER” (ASTRAZENECA AB, priority 2022, published 2026)
